The values that follow come from patent US11753622B2, “Medium supplement to increase the efficiency of oocyte maturation and embryo culture in vitro” (The Curators of the University of Missouri, priority 2016, dated 2023).

The test system of assay [1] is porcine oocytes. The assay is described as follows: Porcine oocyte in vitro maturation (IVM) in cytokine-supplemented medium, then IVF and culture to blastocyst. The assay is classed as cell-based. The note with it: for efficiency of producing nuclear matured (MII) oocytes / oocyte developmental competence (ability of zygotes to form blastocysts after IVF): single cytokine in IVM medium; for efficiency of producing nuclear matured (MII) oocytes: 42 hr, versus control; for oocyte developmental competence (ability of zygotes to form blastocysts after IVF): 6 days culture. The protocol: The individual effects of FGF2, LIF, and IGF-1 on maturation of oocytes derived from pre-pubertal pre-pubertal gilts after commercial slaughter were examined after each had been added to an otherwise standard, chemically-defined medium comprised of TCM 199 supplemented with 10 ng/ml EGF, 0.5 μg/ml LH, 0.5 μg/ml FSH, 3.05 mM glucose, 0.91 mM sodium pyruvate, 0.57 mM cysteine, 10 ng/mL gentamicin, and 0.1% polyvinyl alcohol (PVA). After 42 hr in the oocyte maturation medium with the single cytokine addition, oocytes were in vitro fertilized and the resulting zygotes were cultured under standard in vitro culture conditions for 6 days. […] (FIG. 2). Optimal concentrations of FGF2 (40 ng/ml) and LIF (20 ng/ml) were added in combination to the standard IVM medium. The combination of FGF2 and LIF improved nuclear maturation beyond that achieved with the single factors in Example 1 (Table 1). […] The effects of adding the IGF-1 at the optimal concentration of 20 ng/ml in combination with the other two cytokines to the IVM medium was then examined. The combination of all three cytokines (FGF2, LIF, and IGF-1) increased oocyte nuclear maturation to 89%, as compared to 55% in controls (FIG. 5 and Table 2, column 4). After IVF, zygotes from oocytes cultured in medium comprising FGF2, LIF, and IGF-1 advanced to the blastocyst stage more efficiently than controls (49.7% versus 38%). […] Oocytes derived from medium comprising FGF2, LIF, and IGF-1 also provided improved production of blastocysts following somatic cell nuclear transfer (SCNT), which requires removal of nuclear material from the egg followed by fusion of the enucleated oocyte with a somatic donor cell (FIG. 5). [table]

Assay [2] has as its system oocyte meiotic maturation. Kind of assay: Kinase inhibitors in FGF2, LIF and IGF-1 supplemented medium, oocyte meiotic maturation. As to conditions: PD173074 10 μM, JAK inhibitor I 6 μM, OSI-906 10 μM, PD0325901 10 μM. The assay is classed as cell-based, porcine. From the text:
FIG. 6. Supplementation of FGF2, LIF and IGF-1 (FLI) regulates the changes of MAPK1/3 activation in cumulus cells (CCs) during IVM. […] Each CC sample was pooled from 50 cumulus oocyte complexes (COCs). This experiment was replicated four times. Asterisk denotes a significant difference between control and treatment, P<0.05. […] The experiments were replicated four times with 1208 oocytes. Different letters denote significant differences, P<0.05.

Setting [3] is: Table 1, after IVF, means ± SEM.
Setting [4] is: Table 1, porcine IVM medium, FGF2 40 ng/ml, LIF 20 ng/ml, means ± SEM.
[5] abbreviates: Table 2, IVF embryos cultured in MU1-PZM six days, means ± SEM.

Marks after values point to notes of the source that are not given here.

As to leukemia inhibitory factor [LIF], in assay [1] (setting [3]), the “Blastocysts/Oocyte (%)” value is reported as 19.6 ± 3.6^ab % and the “Blastocysts/Zygote (%)” value was 25.4 ± 4.0^b %. In addition, the “Nuclear Maturation (%)” value in assay [1] (setting [4]) is on record as 75.7 ± 3.1^a %. For the same molecule, in assay [1], the “efficiency of producing nuclear matured (MII) oocytes” value (from here on “efficiency”) is listed as “improved” and the “oocyte developmental competence (ability of zygotes to form blastocysts after IVF)” value (“oocyte developmental competence” for short) is on record as “none of the cytokines improved”.
As for `C[C@]1(O)C[C@@H](c2nc(-c3ccc4ccc(-c5ccccc5)nc4c3)c3c(N)nccn32)C1` [OSI-906], in assay [2], the oocyte meiotic maturation entry is “more moderate declines”.
In the case of `O=C(NOC[C@H](O)CO)c1ccc(F)c(F)c1Nc1ccc(I)cc1F` [PD0325901], the oocyte meiotic maturation result in assay [2] is reported as “almost complete block of meiotic maturation”.
Turning to insulin-like growth factor 1 [IGF-1], in assay [1] (setting [5]), the “Blastocysts/Oocyte (%)” value is 33.6 ± 5.5^b % and the “Blastocysts/Zygote (%)” value is reported as 44.7 ± 6.7^ab %. In assay [1] (Table 2, TCM-199 maturation medium, FGF2 40, LIF 20, IGF-1 20 ng/ml, means ± SEM), the “Nuclear Maturation (%)” value is recorded as 74.8 ± 3.6^b %. Also, in assay [1] (Table 2, day 6 blastocysts, means ± SEM), the “Total blastocyst cell number” value is 34.7 ± 7.8^b. In addition, in assay [1], the “efficiency” value is listed as “improved” and the “oocyte developmental competence” value was “none of the cytokines improved”.
JAK inhibitor I: the oocyte meiotic maturation entry in assay [2] was “more moderate declines”.
With `CCN(CC)CCCCNc1ncc2cc(-c3cc(OC)cc(OC)c3)c(NC(=O)NC(C)(C)C)nc2n1` [PD173074], the oocyte meiotic maturation result in assay [2] is reported as “more moderate declines”.
Regarding fibroblast growth factor 2 [FGF2], in assay [1] (setting [3]), the “Blastocysts/Oocyte (%)” value is given as 25.6 ± 3.6^ab % and the “Blastocysts/Zygote (%)” value is 35.1 ± 4.9^a %. The “Nuclear Maturation (%)” value in assay [1] (setting [4]) is given as 73.2 ± 3.4^a %. In assay [1], the “efficiency” value is “improved” and the “oocyte developmental competence” value is on record as “none of the cytokines improved”.
